Reference: US5089392A, “Fluorogenic substrates for measurement of lysosomal enzyme activities within intact cells” (The United States of America as represented by of the …, priority 1990, dated 1992)

Experiments:
[1] = biological target: T1, lysosomal β-galactosidase (Homo sapiens, UniProt P16278); assay: Loading and intracellular hydrolysis in intact human skin fibroblasts in culture (fluorescence scanning of 96-well plates, fluorescence microscopy); assay type: cell-based
T1 sequence (P16278 29-677): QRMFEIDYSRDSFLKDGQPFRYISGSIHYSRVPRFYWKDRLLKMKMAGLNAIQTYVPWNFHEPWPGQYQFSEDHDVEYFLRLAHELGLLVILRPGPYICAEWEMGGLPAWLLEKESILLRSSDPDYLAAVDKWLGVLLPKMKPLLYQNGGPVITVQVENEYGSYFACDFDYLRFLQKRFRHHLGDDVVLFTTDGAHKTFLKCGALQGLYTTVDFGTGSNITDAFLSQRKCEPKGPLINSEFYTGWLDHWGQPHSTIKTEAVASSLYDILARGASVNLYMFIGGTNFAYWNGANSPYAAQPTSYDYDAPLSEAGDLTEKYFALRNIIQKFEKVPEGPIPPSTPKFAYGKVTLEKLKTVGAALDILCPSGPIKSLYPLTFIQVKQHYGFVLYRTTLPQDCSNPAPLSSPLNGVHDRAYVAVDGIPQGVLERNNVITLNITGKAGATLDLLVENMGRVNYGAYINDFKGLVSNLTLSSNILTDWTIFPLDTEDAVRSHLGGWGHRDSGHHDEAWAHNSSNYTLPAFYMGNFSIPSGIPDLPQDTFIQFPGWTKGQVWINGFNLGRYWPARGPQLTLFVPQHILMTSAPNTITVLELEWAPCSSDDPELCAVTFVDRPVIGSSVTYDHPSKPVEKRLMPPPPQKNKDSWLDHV
Experimental: Loading of Im-DCH-β-Gal(OAc)., 4, into human skin fibroblasts in culture was accomplished as follows. A 20 mM solution of 4 in ethanol was injected via syringe into McCoy's medium to give a 0.1 mM final concentration of fluorogenic substrate. The substrate was further dispersed in the medium by sonication with a W140 Sonifier (two 10 second pulses on power setting of 3). After incubation for 24 hours in serum-free McCoy's medium, cells were loaded with 4 by replacement of the medium with medium containing 0.1 mM substrate. Excess Im-DCH-β-Gal(OAc) may be removed by rinsing the cells, after which the cells may be further incubated in serum free McCoy's medium. […] Excitation (Xenon lamp) through a 360 nm bandpass filter with 10% transmittance at 310 and 385 nm. Emission through a chromatic beam splitter mirror that transmits fully above 405 nm plus a long pass filter with a transmittance of 1% at 408 nm and 10% at 412 nm. Enzymatic hydrolysis was followed by scanning of the loaded cells in a 96-well tissue culture plate with a Dynatech Microfluorometer. Quantitation of product formation was achieved by comparison of the fluorescence generated within individual wells with a standard curve that was obtained from known concentrations of the fluorescent product, 3.
Decreased activity was measured in GM1 cells (12-16% of normal) by fluorescence scanning of 96-well plates. […] In contrast, normal cells are nonfluorescent 24 hours after loading, having hydrolysed their substrate and released the fluorescent product into the media.

β-galactosidase = assay: Cell-free systems that have β-galactosidase activity; assay type: biochemical
[2] = pKa of the Im-DCH fluorophor (imidazole moiety, phenol, excited state); assay type: physicochemical
Description: This term refers to moderately basic amines that concentrate (via acid-base equilibria) in low pH organelles such as lysosomes. For Im-DCH in compounds 4 and 5, the N-alkyl imidazole moiety, with a pKa of approximately 7, serves this function. This lysosomotropic property accounts for a first important attribute of enzyme substrates based upon Im-DCH that is, concentration within lysosomes to ensure that sufficient substrate is concentrated within the lysosomes in order to yield a readily detectable fluorescent signal.
(§1) Two other advantages of the fluorophors of the present invention derive from their physical and optical properties: (1) The low pKa of the phenol in Im-DCH (pKa-5.6) allows the maximal fluoroscence (excitation at 385 nm, detection at 460 nm) to be generated at physiological pH values as well as the low pH conditions within lysosomes. The extremely low pKa of the excited state of Im-DCH (pKa*=0.5) permits strong fluorescence to be measured in solutions as acidic as pH 2-3. By proper choice of spectral parameters (excitation at 365 nm, detection at 460 nm), the fluorescence becomes essentially independent of pH, with a fluorescence intensity at pH 2 that is 60% of the maximum. Ratio measurements of fluorescence (emission at 460 nm with excitation at 365 and 385 nm) also provide an estimate of the pH at the site of enzymatic hydrolysis. (2) Shifts in both the absorption and emission spectra occur upon the hydrolysis of glycosides of Im-DCH to give free Im-DCH. This permits the detection of small amounts of enzymatic hydrolysis in the presence of a very large excess of substrate. For example, at 385 nm excitation and 460 nm detection, the ratio of fluoroescence of the hydrolysis product, Im-DCH, to intact Im-DCH-β-Gal is 620:1. […] It is then deacetylated intracellularly to generate the enzymatically active substrate.

[3] = Fluorescence properties of Im-DCH and its galactoside; assay type: physicochemical; conditions: excitation at 365 nm, detection at 460 nm
Description: as §1

[4] = biological target: T1, lysosomal β-galactosidase; assay: In vitro hydrolysis of the fluorogenic substrate by fibroblast lysates; assay type: biochemical
Experimental: The ability of 5 to serve as a fluorogenic substrate was tested using fibroblasts derived from patients with GM1 gangliosidosis, a hereditary deficiency of lysosomal β-galactosidase.

SMILES: CC(=O)OC[C@H]1O[C@@H](Oc2ccc(OCCCCn3ccnc3)c(C#N)c2C#N)[C@H](OC(C)=O)[C@@H](OC(C)=O)[C@H]1OC(C)=O [Compound 4, β-D-galactopyranoside of 2,3-dicyano-4-[4-(1-imidazolyl)-butoxy]-phenol-2,3,4,6-tetra-O-acetate]
- hydrolysis activity in intact GM1 cells relative to normal ([1]; GM1 cells, fluorescence scanning of 96-well plates): 12-16 % of normal
- intracellular localization of fluorescence in GM1 fibroblasts ([1]; GM1 fibroblasts, fluorescence microscopy): initial perinuclear clustering followed within 24 hours by sequestration into vacuoles
- specificity of the impaired hydrolysis in GM1 gangliosidosis lines ([1]; comparison with cell lines expressing other lysosomal storage disorders): specific for their lysosomal β-galactosidase deficiency
- uptake by intact fibroblasts ([1]; human skin fibroblasts, 0.1 mM substrate): taken up by intact fibroblasts
- fluorescence of normal cells after loading ([1]; normal fibroblasts, 24 hours after loading): nonfluorescent
- activity as a substrate in cell-free systems (β-galactosidase): inactive

SMILES: Cl.N#Cc1c(O)ccc(OCCCCn2ccnc2)c1C#N [Compound 3, 2,3-dicyano-4-[4-(1-imidazolyl)-butoxy]-phenol hydrochloride salt]
- pKa of the phenol [2]: 5.6
- pKa of the excited state (pKa*) ([2]; excited state): 0.5
- pKa of the N-alkyl imidazole moiety ([2]; lysosomotropic amine moiety of Im-DCH in compounds 4 and 5): approximately 7
- fluorescence intensity at pH 2 relative to the maximum [3]: 60%

SMILES: N#Cc1c(OCCCCn2ccnc2)ccc(O[C@@H]2O[C@H](CO)[C@H](O)[C@H](O)[C@H]2O)c1C#N [Compound 5, β-D-galactopyranoside of 2,3-dicyano-4-[4-(1-imidazolyl)-butoxy]-phenol]
- hydrolysis activity in GM1 gangliosidosis lysates relative to normal ([4]; lysates from four GM1 gangliosidosis fibroblast lines): 0.3-5.3 % of normal activity
- hydrolysis by lysates from normal fibroblasts ([4]; lysates from three normal fibroblast lines): hydrolysed rapidly
